The METLIN SMRT retention time set (Domingo-Almenara et al. 2019)

Assay: gradient 5% acetonitrile 3 min, to 50% in 2 min, to 85% in 15 min, held 3 min, 100 µL/min
Conditions: column: Zorbax Extend-C18 2.1 x 50 mm; eluents: water / acetonitrile, 0.1% formic acid
Procedure, shortened: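 Each retention time is based on an adduct peak selected computationally and verified by manual inspection. Measurements used HPLC–quadrupole time-of-flight mass spectrometry in positive and negative ionization mode on mixtures of ~100 pure standards. Chromatography ran on a Zorbax Extend-C18 column (2.1 × 50 mm, 1.8 μm) at 100 μL/min with water and acetonitrile, each containing 0.1% formic acid, and dead and dwell volumes of 40 μL and 900 μL.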

Row | RP-LC retention time [s] | SMILES
1 | 914 | Cn1nc(C(=O)Nc2ccccc2)c2c1CCN(C(=O)Nc1cccc(Br)c1)C2
2 | 1030 | Cc1ccc2c(=O)c(S(=O)(=O)c3ccccc3)cn(Cc3cccc(Cl)c3)c2n1
3 | 872 | Cc1cc2c(cc1C(=O)NCc1ccc3c(c1)CCCO3)OCCCO2
4 | 703 | COc1ccc(-c2nnc(-c3ccccc3)o2)cc1S(=O)(=O)NCC(=O)O
5 | 656 | Cc1ccc(Nc2c(-c3ccc(O)cc3)nc3ccccn23)cc1
6 | 837 | CC(C)C(=O)Nc1ccc(OCc2cc(C(=O)NC3CCCC3)no2)cc1
7 | 685 | CS(=O)(=O)N(C1CCOCC1)C1CN(C(=O)c2cc3ccccc3[nH]2)C1
8 | 795 | CN1c2cc(Cl)ccc2C(=O)NC12CCN(C(=O)Nc1ccccc1)CC2
9 | 1060 | Cc1cc2nn(CC(=O)NCc3ccccc3)c(=O)n2c(Nc2ccc(C)c(C)c2)n1
10 | 646 | CCCNC(=O)C1CCCN(c2ccc(SCC(=O)NCc3cc(F)cc(F)c3)nn2)C1 (stereo unspecified)
11 | 706 | Cc1c(C(=O)N2CCCC2)cnn1-c1ncccc1-c1nc(C2CC2)no1
12 | 761 | O=C1CCCc2cc(S(=O)(=O)N3CCC(C(=O)NC4CCCC4)CC3)ccc2N1
13 | 895 | COC[C@@H]1CN(S(=O)(=O)c2ccc(C(C)C)cc2)C[C@H]1c1ccccn1
14 | 799 | O=C(NC1CCc2ccccc21)c1nnn(-c2ccc(F)cc2)c1-c1ccncc1 (stereo unspecified)
15 | 615 | CC(C)CNC(=O)N1CCCN(S(C)(=O)=O)CC1
16 | 745 | O=C(Nc1cccc(Cl)c1F)N1CCCC1c1nncn1-c1ccccc1 (stereo unspecified)
17 | 727 | O=c1ccc(-c2ccccc2)nn1CCc1nc(-c2ccncc2)no1
18 | 1090 | Cc1ccc(-c2csc(-n3nc(C)c(CC(=O)N4CCCC4)c3C)n2)cc1
19 | 948 | O=C(Nc1ccccc1C(F)(F)F)N1CCc2nc(-c3ccccc3)ncc2C1
20 | 628 | CN(C)C(=O)c1cc2c(s1)CCC(C(=O)NCc1ccccc1)C2 (stereo unspecified)
21 | 623 | Cn1cc(-c2cc3n(n2)CCC(=O)N3CC(=O)N2CCC(N3CCCCC3)CC2)c2ccccc21
22 | 579 | CCN1CCN(CCCNC(=O)C2CCCN(C(=O)c3[nH]c(C)c(C(=O)OC(C)C)c3C)C2)CC1 (stereo unspecified)

Row | RP-LC retention time [s] | SMILES
23 | 654 | O=C(Cn1c(=O)c2nncn2c2ncccc21)NCc1cc(F)ccc1F
24 | 752 | COc1cccc(CNC(=O)CCc2nnc3c4cc(-c5ccccc5)nn4ccn23)c1
25 | 744 | O=C(Nc1ccc(F)c(Cl)c1)N1CCCC(Cn2c(C3CC3)nc3cccnc32)C1 (stereo unspecified)
26 | 782 | CC(=O)O[C@H]1Cc2ccccc2N(C(N)=O)c2ccccc21
27 | 953 | O=C(OCc1nc2ccccc2s1)c1ccc2c(c1)OCCO2
28 | 905 | COc1ccc(C(=O)Nc2cccn3nc(C4CCC4)nc23)cc1
29 | 620 | CNC(=O)c1cc(N2CCCC2)nc2c(Cl)cccc12
30 | 1030 | Cc1ccc(S(=O)(=O)N2CCCC(c3nnc(CC(C)(C)C)o3)C2)cc1C (stereo unspecified)
31 | 734 | COC(=O)c1ncn2c1C(=O)N(c1cccc(C)c1C)C(C)(C(=O)NC1CCCC1)C2 (stereo unspecified)
32 | 770 | CN(C)CCCNc1cc(N2CCOCC2)c2noc3c2c1C(=O)c1ccccc1-3
33 | 617 | COCCNC(=O)C1CCN(c2cnc(N3CCCCCC3)nc2)CC1
34 | 1060 | Cc1ccc(C)c(N2CCN(c3ccnc(SCC(=O)Nc4ccc(C(C)C)cc4)n3)CC2)c1
35 | 713 | COc1cccc(CNC(=O)C2CCN(S(=O)(=O)c3ccc4c(c3)CCCC(=O)N4)CC2)c1
36 | 807 | CN1C(=O)C2(CCN(C(=O)NC3CCCCC3)CC2)c2ccccc21
37 | 701 | O=C(NC1CCN(c2cc(-c3cccs3)[nH]n2)C1)c1ccccc1Cl (stereo unspecified)
38 | 1070 | Clc1cccc(-c2nnc(Cc3nc(-c4ccccc4)no3)o2)c1
39 | 604 | CCOc1cccc(C2CC(c3ccc(OC)c(OC)c3)=NC3(CCN(C(C)C)CC3)N2)c1O (stereo unspecified)
40 | 588 | CS(=O)(=O)N1CCC(C(=O)Nc2ccc3cn[nH]c3c2)CC1
41 | 952 | Cn1nc(-c2nc(C3CC3)no2)c2c1CCN(S(=O)(=O)c1ccccc1Cl)C2
42 | 843 | O=C(O)c1ccc2c(ccn2Cc2ccccc2)c1
43 | 693 | CCc1nnc(NC(=O)c2c[nH]c3c(Cl)cccc3c2=O)s1
44 | 838 | COc1cc(NC(=O)Cn2c(=O)nc(N3CCCC(C)C3)c3ccccc32)cc(OC)c1 (stereo unspecified)

Row | RP-LC retention time [s] | SMILES
45 | 984 | Cc1cccc(CNC(=O)C2CCCN(c3ccc(=O)n(-c4ccc(C)c(Cl)c4)n3)C2)c1 (stereo unspecified)
46 | 542 | Cc1nnc(NC(=O)CSc2nnc(CCc3nc4ccccc4[nH]3)o2)s1
47 | 756 | Cn1cc(C(CNC(=O)Nc2cccc(Cl)c2)c2cccnc2)c2ccccc21 (stereo unspecified)
48 | 1120 | O=S(=O)(c1ccc(Br)cc1)N1CCc2nc(-c3ccccc3)ncc2C1
49 | 841 | Cc1ccc(NS(=O)(=O)c2cc3n(c2)CCN(CC(C)C)C3=O)c(C)c1
50 | 891 | O=C(CSc1ncnc2c1[nH]c1ccc(F)cc12)N1CCc2ccccc2C1
51 | 784 | CCCNC(=O)CCC1CCN(S(=O)(=O)c2ccccc2)CC1
52 | 564 | CCN1CCN(CCNC(=O)Cn2c(=O)n(-c3ccccc3)c3ncccc32)CC1
53 | 1060 | CC(C)c1ccc(NC(=O)Cn2cccc2-c2nnc(C3CCC3)o2)cc1
54 | 623 | O=C(Cc1csc(-n2cccc2)n1)N1CCN(c2ccccn2)CC1
55 | 559 | CCOC(=O)C1CCCN(Cc2cn3cc(F)ccc3n2)C1 (stereo unspecified)
56 | 890 | Cc1nc(-c2ccc(N3CCN(C(=O)c4cc(F)ccc4F)CC3)nc2)sc1C
57 | 877 | Cc1cccc(OCC(=O)c2ccc3c(c2)N(C(C)C(=O)N2CCOCC2)C(=O)CO3)c1C (stereo unspecified)
58 | 754 | CCC(C)(C)NC(=O)CCNc1c(-c2ccc(F)cc2)nc2cnccn12
59 | 568 | COc1ccc(Br)cc1S(=O)(=O)NCCCn1ccnc1
60 | 866 | COc1cccc(-n2cc(C(=O)OCc3cc(=O)n4ccccc4n3)c3ccccc3c2=O)c1
61 | 638 | Cn1c(=O)n(CCN2CCOCC2)c(=O)c2c1nc1n2CCCN1c1ccc(Br)cc1
62 | 728 | COc1ccc(NC(=O)C2CCCN(Cc3nc(-c4cccs4)no3)C2)cc1Cl (stereo unspecified)
63 | 665 | CCN1CCN(c2nc3cc(C(=O)OC)ccc3c(=O)n2-c2cccc(Cl)c2)CC1
64 | 635 | O=C(NCc1ccc(F)cc1)c1ccnc(N2CCNC(c3ccccc3)C2)c1 (stereo unspecified)
65 | 782 | O=C(O)c1ccccc1C(=O)Nc1ccccc1[N+](=O)[O-]
66 | 889 | O=C(C1CCN(c2cnc3nccnc3c2)CC1)N1CCC(Cc2ccccc2)CC1
